According to ChEMBL document CHEMBL1201862, “PubChem BioAssay data set” (2004):
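1) Cells in 96-well plates. 2) Compound, 48 h, 5 concentrations. 3) Linear interpolation between surrounding doses. 4) Unreached endpoint = highest concentration. The concentration for 50% growth inhibition is given as GI50.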 Calls of active or inactive are those of the source. Rule as the data show it: active = GI50 up to about 1.1 µM and inactive = higher.

How the values were obtained:
Test in all cases: growth of human tumour cells (NCI), 48 h
[1] = tested on: SNB-19
[2] = tested on: UO-31
[3] = tested on: SK-OV-3
[4] = tested on: IGROV-1
[5] = tested on: SW-620
[6] = tested on: K562
[7] = tested on: SR
[8] = tested on: Malme-3M
[9] = tested on: 786-0
[10] = tested on: OVCAR-5
[11] = tested on: A549
[12] = tested on: SK-MEL-5
[13] = tested on: HOP-92
[14] = tested on: U-251
[15] = tested on: EKVX
[16] = tested on: T47D
[17] = tested on: RPMI-8226
[18] = tested on: MOLT-4
[19] = tested on: OVCAR-4
[20] = tested on: MDA-MB-231

SMILES: Cc1c2c3ccccc3nc-2n(C)c2ccccc12
- GI50 [1]: 5.35 µM (inactive)
- GI50 [2]: 1.79 µM (inactive)
- GI50 [3]: 1.25 µM (inactive)
- GI50 [4]: 2.32 µM (inactive)
- GI50 [5]: 1.11 µM (active)
- GI50 [6]: 1.3 µM (inactive)
- GI50 [7]: 1.44 µM (inactive)
- GI50 [8]: 2.08 µM (inactive)
- GI50 [9]: 2.02 µM (inactive)
- GI50 [10]: 2.61 µM (inactive)
- GI50 [11]: 1.57 µM (inactive)
- GI50 [12]: 0.437 µM (active)
- GI50 [13]: 2.61 µM (inactive)
- GI50 [14]: 2.54 µM (inactive)
- GI50 [15]: 2.43 µM (inactive)
- GI50 [16]: 3.08 µM (inactive)
- GI50 [17]: 2.7 µM (inactive)
- GI50 [18]: 0.339 µM (active)

SMILES: COc1cccc(C(=O)O[C@H]2[C@@H]3[C@]4(OC(C)=O)CO[C@@H]4C[C@H](O)[C@@]3(C)C(=O)[C@H](OC(C)=O)C3=C(C)[C@@H](OC(=O)[C@H](O)[C@@H](NC(=O)OC(C)(C)C)c4ccco4)C[C@]2(O)C3(C)C)c1
- GI50 [19]: 6.32 µM (inactive)
- GI50 [20]: < 0.00375 µM (active)
- GI50 [1]: 0.133 µM (active)
- GI50 [2]: < 0.00375 µM (active)
- GI50 [3]: < 0.00375 µM (active)
- GI50 [4]: < 0.00375 µM (active)
- GI50 [5]: < 0.00375 µM (active)
- GI50 [6]: < 0.00375 µM (active)
- GI50 [7]: < 0.00375 µM (active)
- GI50 [8]: 1.47 µM (inactive)
- GI50 [9]: 0.00522 µM (active)
- GI50 [10]: 0.147 µM (active)
- GI50 [11]: < 0.00375 µM (active)
- GI50 [12]: < 0.00375 µM (active)
- GI50 [14]: < 0.00375 µM (active)
- GI50 [15]: 0.173 µM (active)
- GI50 [17]: < 0.00375 µM (active)
- GI50 [18]: < 0.00375 µM (active)

SMILES: NC(Cc1ccc(OCc2ccccc2)cn1)C(=O)O (stereo not drawn)
- GI50 [20]: > 100 µM (inactive)
- GI50 [1]: > 100 µM (inactive)
- GI50 [2]: > 100 µM (inactive)
- GI50 [4]: > 100 µM (inactive)
- GI50 [5]: > 100 µM (inactive)
- GI50 [6]: > 100 µM (inactive)
- GI50 [7]: > 100 µM (inactive)
- GI50 [8]: > 100 µM (inactive)
- GI50 [9]: > 100 µM (inactive)
- GI50 [10]: > 100 µM (inactive)
- GI50 [11]: > 100 µM (inactive)
- GI50 [12]: > 100 µM (inactive)
- GI50 [14]: > 100 µM (inactive)
- GI50 [15]: > 100 µM (inactive)
- GI50 [17]: > 100 µM (inactive)
- GI50 [18]: > 100 µM (inactive)

SMILES: CC12CCC(C/C1=N\NC(N)=O)C2(C)C (stereo not drawn)
- GI50 [19]: > 100 µM (inactive)
- GI50 [1]: > 100 µM (inactive)
- GI50 [2]: > 100 µM (inactive)
- GI50 [3]: > 100 µM (inactive)
- GI50 [4]: > 100 µM (inactive)
- GI50 [5]: > 100 µM (inactive)
- GI50 [6]: > 100 µM (inactive)
- GI50 [7]: > 100 µM (inactive)
- GI50 [8]: > 100 µM (inactive)
- GI50 [9]: > 100 µM (inactive)
- GI50 [10]: > 100 µM (inactive)
- GI50 [11]: > 100 µM (inactive)
- GI50 [12]: > 100 µM (inactive)
- GI50 [13]: > 100 µM (inactive)
- GI50 [14]: > 100 µM (inactive)
- GI50 [15]: > 100 µM (inactive)
- GI50 [16]: > 100 µM (inactive)
- GI50 [17]: > 100 µM (inactive)
- GI50 [18]: > 100 µM (inactive)

SMILES: Clc1ccc(Nc2nnc(CCCCCCCCc3nnc(Nc4ccc(Cl)cc4)o3)o2)cc1
- GI50 [19]: 51.6 µM (inactive)
- GI50 [20]: 44.2 µM (inactive)
- GI50 [1]: 26.3 µM (inactive)
- GI50 [2]: 36.8 µM (inactive)
- GI50 [3]: 35.7 µM (inactive)
- GI50 [4]: 8 µM (inactive)
- GI50 [5]: 48.5 µM (inactive)
- GI50 [6]: 7.35 µM (inactive)
- GI50 [8]: 11 µM (inactive)
- GI50 [9]: 24.5 µM (inactive)
- GI50 [10]: 23.7 µM (inactive)
- GI50 [11]: 28.1 µM (inactive)
- GI50 [12]: 23.1 µM (inactive)
- GI50 [13]: 23.8 µM (inactive)
- GI50 [14]: 38.3 µM (inactive)
- GI50 [15]: 39 µM (inactive)
- GI50 [17]: 21.6 µM (inactive)
- GI50 [18]: 10.9 µM (inactive)

SMILES: CN1C(=O)N(C)C(O)C(Cl)(Br)C1=O (stereo not drawn)
- GI50 [20]: > 100 µM (inactive)
- GI50 [1]: > 100 µM (inactive)
- GI50 [2]: > 100 µM (inactive)
- GI50 [3]: > 100 µM (inactive)
- GI50 [4]: > 100 µM (inactive)
- GI50 [5]: > 100 µM (inactive)
- GI50 [6]: > 100 µM (inactive)
- GI50 [7]: > 100 µM (inactive)
- GI50 [8]: > 100 µM (inactive)
- GI50 [9]: > 100 µM (inactive)
- GI50 [10]: 0.182 µM (active)
- GI50 [11]: > 100 µM (inactive)
- GI50 [12]: > 100 µM (inactive)
- GI50 [14]: > 100 µM (inactive)
- GI50 [15]: > 100 µM (inactive)
- GI50 [17]: > 100 µM (inactive)
- GI50 [18]: > 100 µM (inactive)

SMILES: O=C(NS(=O)(=O)Nc1ccc(Cl)cc1)OCc1ccc(Cl)cc1Cl
- GI50 [19]: 24 µM (inactive)
- GI50 [20]: 23.3 µM (inactive)
- GI50 [1]: 18.6 µM (inactive)
- GI50 [2]: 17.5 µM (inactive)
- GI50 [3]: 21.1 µM (inactive)
- GI50 [4]: 17.8 µM (inactive)
- GI50 [5]: 33.3 µM (inactive)
- GI50 [6]: 28.4 µM (inactive)
- GI50 [7]: 38.2 µM (inactive)
- GI50 [8]: 19.1 µM (inactive)
- GI50 [9]: 34.6 µM (inactive)
- GI50 [10]: 24.2 µM (inactive)
- GI50 [11]: 21.8 µM (inactive)
- GI50 [12]: 17.8 µM (inactive)
- GI50 [13]: 24.7 µM (inactive)
- GI50 [14]: 28.6 µM (inactive)
- GI50 [17]: 54.5 µM (inactive)
- GI50 [18]: 46.2 µM (inactive)

SMILES: CCCCC1(OC(=O)CCC(=O)O)CCC2(CCC(C)C(C/C=C(C)/C=C/C(O)C(C)/C=C/C(=O)O)O2)OC1CC/C(C)=C/C(=O)O (stereo not drawn)
- GI50 [19]: 2.1 µM (inactive)
- GI50 [1]: 3.11 µM (inactive)
- GI50 [2]: 2.97 µM (inactive)
- GI50 [3]: 6.17 µM (inactive)
- GI50 [4]: 1.47 µM (inactive)
- GI50 [5]: 8.3 µM (inactive)
- GI50 [6]: 2.8 µM (inactive)
- GI50 [7]: 3.04 µM (inactive)
- GI50 [8]: 7.73 µM (inactive)
- GI50 [9]: 3.52 µM (inactive)
- GI50 [10]: 3.94 µM (inactive)
- GI50 [11]: 12.2 µM (inactive)
- GI50 [12]: 1.61 µM (inactive)
- GI50 [13]: 1.67 µM (inactive)
- GI50 [14]: 4.35 µM (inactive)
- GI50 [15]: 5.2 µM (inactive)
- GI50 [17]: 3.15 µM (inactive)
- GI50 [18]: 5.02 µM (inactive)

SMILES: CCCCCCOc1ccc(C(=O)NOCc2ccccc2)cc1
- GI50 [19]: > 100 µM (inactive)
- GI50 [20]: > 100 µM (inactive)
- GI50 [1]: > 100 µM (inactive)
- GI50 [2]: > 100 µM (inactive)
- GI50 [3]: > 100 µM (inactive)
- GI50 [4]: > 100 µM (inactive)
- GI50 [5]: > 100 µM (inactive)
- GI50 [6]: 35.6 µM (inactive)
- GI50 [7]: 18.5 µM (inactive)
- GI50 [9]: > 100 µM (inactive)
- GI50 [10]: > 100 µM (inactive)
- GI50 [11]: > 100 µM (inactive)
- GI50 [12]: > 100 µM (inactive)
- GI50 [13]: > 100 µM (inactive)
- GI50 [14]: > 100 µM (inactive)
- GI50 [15]: > 100 µM (inactive)
- GI50 [17]: 42.2 µM (inactive)
- GI50 [18]: 79.6 µM (inactive)

SMILES: CN(C)C1(c2cc3ccccc3s2)CCCCC1
- GI50 [19]: 47.2 µM (inactive)
- GI50 [20]: 65.6 µM (inactive)
- GI50 [1]: 49 µM (inactive)
- GI50 [2]: 30.9 µM (inactive)
- GI50 [3]: 39.5 µM (inactive)
- GI50 [4]: 36.1 µM (inactive)
- GI50 [5]: 0.125 µM (active)
- GI50 [6]: 18 µM (inactive)
- GI50 [7]: 18 µM (inactive)
- GI50 [9]: 22.2 µM (inactive)
- GI50 [10]: 22.5 µM (inactive)
- GI50 [11]: 51.2 µM (inactive)
- GI50 [12]: 17.4 µM (inactive)
- GI50 [13]: 1.79 µM (inactive)
- GI50 [14]: 43.6 µM (inactive)
- GI50 [15]: > 100 µM (inactive)
- GI50 [18]: 19.2 µM (inactive)

SMILES: N/C(=N\O)N/N=C/c1cc(I)cc(I)c1O
- GI50 [19]: 27.6 µM (inactive)
- GI50 [20]: 54.8 µM (inactive)
- GI50 [1]: 49.5 µM (inactive)
- GI50 [3]: 75.5 µM (inactive)
- GI50 [4]: 30.8 µM (inactive)
- GI50 [5]: > 100 µM (inactive)
- GI50 [6]: 43.2 µM (inactive)
- GI50 [8]: 19.3 µM (inactive)
- GI50 [9]: 22.2 µM (inactive)
- GI50 [10]: 79.1 µM (inactive)
- GI50 [11]: 49.3 µM (inactive)
- GI50 [12]: 30.6 µM (inactive)
- GI50 [14]: 34.8 µM (inactive)
- GI50 [15]: 58.3 µM (inactive)
- GI50 [16]: 48.1 µM (inactive)
- GI50 [18]: > 100 µM (inactive)
